Test results reported in patent publication EP1948196B1, “USE OF TETRAORGANOSILICON COMPOUNDS” (Salama, Zoser B., priority 2005, dated 2007).
In brackets after ≈: the same amount, converted by molar mass. Like-named read-outs stand apart in the source and are kept apart here. Values belong to the compound of their own block, whether it stands above or below them. Numbered stars: 1 amine (or outer) side, 2 acyl side, 3 side chain; on linkers, the order of the positions; unused ones are H or OH. Bridge positions count the residues as written; N and C are the ends. Peptide text beside a SMILES is read from it. I, II: the chains in the order shown. X2 = c1ccc([Si](O[*:1])(O[*:2])c2ccccc2)cc1; X1 = C[Si](C)(O[*:1])O[*:2]

Assays:
Rhino-Viren = assay: Antiviral effect; conditions: in particular as vesicles holding antisense constructs
Osteosarkome = assay: Effect on osteosarcomas
Seminome = assay: Effect on seminomas
Hepatitis B-Viren = assay: Antiviral effect; conditions: in particular as vesicles holding antisense constructs
Angiosarkome [1] = assay: Effect on angiosarcomas
[2] = test system: Plattenepihtelkarzinomen oder Plasmozytomen; assay: Effect against metastasis in rats; type: in vivo; conditions: in Ratten
Lymphome = assay: Effect on lymphomas
Angiosarkome [3] = assay: Effect on angiosarcomas; remark: listed apart in the source
[4] = test system: BxPC3 (pankreatisches Adenokarzinom); assay: MTT test, triplicate, two-fold dilutions; type: cell-based; conditions: Homo sapiens
Description: (§1) Die Silan wurden in Ethanol aufgelöst und in Zellkulturmedien in Konzentrationen von bis zu 500 µg/ml resuspendiert. Es wurden MTT Tests in dreifacher Ausführung durchgeführt, für welche doppelte Lösungen (7 Schritte) und colo205 (Kofon-Karzinom), BxPC3 (pankreatisches Adenokarzinom) sowie T47D (Brustkrebs) benutzt wurden.

T47D (Brustkrebs) = assay: MTT test, triplicate, two-fold dilutions; type: cell-based; conditions: Homo sapiens, T47D, read-out: IC50 T47D
Description: as §1

colo205 (Kofon-Karzinom) = assay: MTT test, triplicate, two-fold dilutions; type: cell-based; conditions: Homo sapiens
Description: as §1

[5] = BXPC-3, up to 500 µg/ml, read-out: IC50 BxPC3
[6] = COLO 205, up to 500 µg/ml, read-out: IC50 Colo205
[7] = COLO 205, read-out: IC50 Colo205

Compound: CCCCCCCC/C=C\CCCCCCCC(=O)O[Si](OC(=O)CCCCCCC/C=C\CCCCCCCC)(c1ccccc1)c1ccccc1
- Wirkung gegen Rhino-Viren (Rhino-Viren): zeigen eine Wirkung
- Wirkung auf Osteosarkome (Osteosarkome): zeigen eine Wirkung

Compound: CCCCC/C=C\C/C=C\CCCCCCCC(=O)O[Si](OC(=O)CCCCCCC/C=C\C/C=C\CCCCC)(c1ccccc1)c1ccccc1 [Di (linoylooxy)diphenylsilan]
- Wirkung gegen Rhino-Viren (Rhino-Viren): zeigen eine Wirkung
- Wirkung auf Osteosarkome (Osteosarkome): zeigen eine Wirkung

Compound: CCCCCCCCCCCC(=O)O[Si](CCC)(CCC)OC(=O)CCCCCCCCCCC [Di(dodecanoyloxy)dipropylsilan]
- Wirkung auf Seminome (Seminome): zeigen eine Wirkung
- Wirkung gegen Hepatitis B-Viren (Hepatitis B-Viren): zeigen eine Wirkung
- Wirkung gegen Angiosarkome (Angiosarkome [1]): zeigen eine Wirkung

Compound: CCCCCCCCCCCCCCCCC(=O)O[Si](C)(C)OC(=O)CCCCCCCCCCCCCCCC [Di(heptadecanoyloxy)dimethylslan]
- Wirkung gegen die Metastasierung von Plattenepihtelkarzinomen oder Plasmozytomen [2]: zeigen eine Wirkung

Compound: CCCCCCCCCCCCCCCCC(=O)O[Si](OC(=O)CCCCCCCCCCCCCCCC)(c1ccccc1)c1ccccc1 [Di(heptadecanoyloxy)diphenylsilan]
- Wirkung gegen Rhino-Viren (Rhino-Viren): zeigen eine Wirkung
- Wirkung auf Osteosarkome (Osteosarkome): zeigen eine Wirkung

Compound: CC/C=C\C/C=C\C/C=C\CCCCCCCC(=O)O[Si](OC(=O)CCCCCCC/C=C\C/C=C\C/C=C\CC)(c1ccccc1)c1ccccc1 [Di(linolenoylooxy)diphenylsilan]
- Wirkung gegen Rhino-Viren (Rhino-Viren): zeigen eine Wirkung
- Wirkung auf Osteosarkome (Osteosarkome): zeigen eine Wirkung

Compound: CCCCCCCCC(=O)O[Si](CC)(CC)OC(=O)CCCCCCCC [Di(nonanoyloxy)diethyisilan]
- Wirkung gegen die Metastasierung von Plattenepihtelkarzinomen oder Plasmozytomen [2]: zeigen eine Wirkung

Compound: CCCCCCCCC(=O)O[Si](OC(=O)CCCCCCCC)(c1ccccc1)c1ccccc1 [Di(nonanoyloxy)diphenylsilan]
- Wirkung gegen Rhino-Viren (Rhino-Viren): zeigen eine Wirkung
- Wirkung auf Osteosarkome (Osteosarkome): zeigen eine Wirkung

Compound: CCCCCCCC(=O)O[Si](CC)(CC)OC(=O)CCCCCCC [Di(octanoyloxy)diethylsilan]
- Wirkung gegen die Metastasierung von Plattenepihtelkarzinomen oder Plasmozytomen [2]: zeigen eine Wirkung

Compound: CCCCCCCCCCCCCCC(=O)O[Si](C)(C)OC(=O)CCCCCCCCCCCCCC [Di(pentadecanoyloxy)dimethylsilan]
- Wirkung gegen die Metastasierung von Plattenepihtelkarzinomen oder Plasmozytomen [2]: zeigen eine Wirkung

Compound: CCCCCCCCCCCCCCC(=O)O[Si](CCC)(CCC)OC(=O)CCCCCCCCCCCCCC [Di(pentadecanoyloxy)dipropylsilan]
- Wirkung auf Seminome (Seminome): zeigen eine Wirkung
- Wirkung gegen Hepatitis B-Viren (Hepatitis B-Viren): zeigen eine Wirkung
- Wirkung gegen Angiosarkome (Angiosarkome [1]): zeigen eine Wirkung

Compound: CCCCCCCCCCCCCC(=O)O[Si](CCC)(CCC)OC(=O)CCCCCCCCCCCCC [Di(tetradecanoyloxy)dipropylsilan]
- Wirkung auf Seminome (Seminome): zeigen eine Wirkung
- Wirkung gegen Hepatitis B-Viren (Hepatitis B-Viren): zeigen eine Wirkung
- Wirkung gegen Angiosarkome (Angiosarkome [1]): zeigen eine Wirkung

Compound: CCCCCCCCCCCCC(=O)O[Si](CCC)(CCC)OC(=O)CCCCCCCCCCCC [Di(tridecanoyloxy)dipropylsilan]
- Wirkung auf Seminome (Seminome): zeigen eine Wirkung
- Wirkung gegen Hepatitis B-Viren (Hepatitis B-Viren): zeigen eine Wirkung
- Wirkung gegen Angiosarkome (Angiosarkome [1]): zeigen eine Wirkung

Compound: CCCCCCCCCCC(=O)O[Si](OC(=O)CCCCCCCCCC)(c1ccccc1)c1ccccc1 [Di(undecanoyloxy)diphenylsilan]
- Wirkung gegen Rhino-Viren (Rhino-Viren): zeigen eine Wirkung
- Wirkung auf Osteosarkome (Osteosarkome): zeigen eine Wirkung

Compound: C[Si](C)(OC(=O)[C@H](Cc1ccccc1)NC(=O)[C@H](Cc1ccccc1)NC(=O)[C@H](Cc1ccccc1)NC(=O)[C@H](Cc1ccccc1)NC(=O)[C@H](Cc1ccccc1)NC(=O)[C@H](Cc1ccccc1)NC(=O)[C@H](Cc1ccccc1)NC(=O)[C@@H](N)Cc1ccccc1)OC(=O)[C@H](Cc1ccccc1)NC(=O)[C@H](Cc1ccccc1)NC(=O)[C@H](Cc1ccccc1)NC(=O)[C@H](Cc1ccccc1)NC(=O)[C@H](Cc1ccccc1)NC(=O)[C@H](Cc1ccccc1)NC(=O)[C@H](Cc1ccccc1)NC(=O)[C@@H](N)Cc1ccccc1 [Dimethyl bis(octaphenylalanyl)silylester] (I: H-FFFFFFFF / II: H-FFFFFFFF; linker I:C-II:C via X1)
- Wirkung auf Lymphome (Lymphome): zeigen eine Wirkung

Compound: N[C@@H](Cc1ccccc1)C(=O)N[C@@H](Cc1ccccc1)C(=O)N[C@@H](Cc1ccccc1)C(=O)N[C@@H](Cc1ccccc1)C(=O)N[C@@H](Cc1ccccc1)C(=O)N[C@@H](Cc1ccccc1)C(=O)N[C@@H](Cc1ccccc1)C(=O)N[C@@H](Cc1ccccc1)C(=O)N[C@@H](Cc1ccccc1)C(=O)N[C@@H](Cc1ccccc1)C(=O)O[Si](OC(=O)[C@H](Cc1ccccc1)NC(=O)[C@H](Cc1ccccc1)NC(=O)[C@H](Cc1ccccc1)NC(=O)[C@H](Cc1ccccc1)NC(=O)[C@H](Cc1ccccc1)NC(=O)[C@H](Cc1ccccc1)NC(=O)[C@H](Cc1ccccc1)NC(=O)[C@H](Cc1ccccc1)NC(=O)[C@H](Cc1ccccc1)NC(=O)[C@@H](N)Cc1ccccc1)(c1ccccc1)c1ccccc1 [Diphenyl bis(decaphenylalanyl) silylester] (I: H-FFFFFFFFFF / II: H-FFFFFFFFFF; linker I:C-II:C via X2)
- Wirkung auf Plasmozytome (Plasmozytome): zeigen eine Wirkung

Compound: CC(C)[C@H](N)C(=O)N[C@H](C(=O)N[C@H](C(=O)N[C@H](C(=O)N[C@H](C(=O)N[C@H](C(=O)N[C@H](C(=O)N[C@H](C(=O)N[C@H](C(=O)O[Si](OC(=O)[C@@H](NC(=O)[C@@H](NC(=O)[C@@H](NC(=O)[C@@H](NC(=O)[C@@H](NC(=O)[C@@H](NC(=O)[C@@H](NC(=O)[C@@H](NC(=O)[C@@H](N)C(C)C)C(C)C)C(C)C)C(C)C)C(C)C)C(C)C)C(C)C)C(C)C)C(C)C)(c1ccccc1)c1ccccc1)C(C)C)C(C)C)C(C)C)C(C)C)C(C)C)C(C)C)C(C)C)C(C)C [Diphenyl bis(nonavalyl)silylester] (I: H-VVVVVVVVV / II: H-VVVVVVVVV; linker I:C-II:C via X2)
- Wirkung gegen Angiosarkome (Angiosarkome [3]): zeigen eine Wirkung

Compound: CC(C)[C@H](N)C(=O)N[C@H](C(=O)N[C@H](C(=O)N[C@H](C(=O)N[C@H](C(=O)N[C@H](C(=O)N[C@H](C(=O)N[C@H](C(=O)O[Si](OC(=O)[C@@H](NC(=O)[C@@H](NC(=O)[C@@H](NC(=O)[C@@H](NC(=O)[C@@H](NC(=O)[C@@H](NC(=O)[C@@H](NC(=O)[C@@H](N)C(C)C)C(C)C)C(C)C)C(C)C)C(C)C)C(C)C)C(C)C)C(C)C)(c1ccccc1)c1ccccc1)C(C)C)C(C)C)C(C)C)C(C)C)C(C)C)C(C)C)C(C)C [Diphenyl bis(octavalyl)silylester] (I: H-VVVVVVVV / II: H-VVVVVVVV; linker I:C-II:C via X2)
- Wirkung gegen Angiosarkome (Angiosarkome [3]): zeigen eine Wirkung

Compound: CC(C)[C@H](N)C(=O)N[C@H](C(=O)N[C@H](C(=O)N[C@H](C(=O)N[C@H](C(=O)O[Si](OC(=O)[C@@H](NC(=O)[C@@H](NC(=O)[C@@H](NC(=O)[C@@H](NC(=O)[C@@H](N)C(C)C)C(C)C)C(C)C)C(C)C)C(C)C)(c1ccccc1)c1ccccc1)C(C)C)C(C)C)C(C)C)C(C)C [Diphenyl bis(pentavalyl)silylester]
- Wirkung gegen Angiosarkome (Angiosarkome [3]): zeigen eine Wirkung

Compound: CC(C)[C@H](N)C(=O)N[C@H](C(=O)N[C@H](C(=O)N[C@H](C(=O)O[Si](OC(=O)[C@@H](NC(=O)[C@@H](NC(=O)[C@@H](NC(=O)[C@@H](N)C(C)C)C(C)C)C(C)C)C(C)C)(c1ccccc1)c1ccccc1)C(C)C)C(C)C)C(C)C [Diphenyl bis(tetravalyl)silylester]
- Wirkung gegen Angiosarkome (Angiosarkome [3]): zeigen eine Wirkung

Compound: CCCCCCCCCCC(=O)O[Si](C)(C)OC(=O)CCCCCCCCCC [Si 2, Di (undecanoyloxy) dimethylsilan]
- IC50 [4, 5]: 80 µg/mL (≈ 187 µM)
- IC50 (T47D (Brustkrebs); up to 500 µg/ml): 125 µg/mL (≈ 292 µM)
- IC50 (colo205 (Kofon-Karzinom); [6]): 125 µg/mL (≈ 292 µM)
- Wirkung gegen die Metastasierung von Plattenepihtelkarzinomen oder Plasmozytomen [2]: zeigen eine Wirkung

Compound: CCCCCCCCCCCCC(=O)O[Si](C)(C)OC(=O)CCCCCCCCCCCC [Si 3, Di (tridecanoyloxy) dimethylsilan]
- IC50 ([4]; BXPC-3, read-out: IC50 BxPC3): 80 µg/mL (≈ 165 µM)
- IC50 (T47D (Brustkrebs)): 80 µg/mL (≈ 165 µM)
- IC50 (colo205 (Kofon-Karzinom); [7]): 230 µg/mL (≈ 474 µM)
- Wirkung gegen die Metastasierung von Plattenepihtelkarzinomen oder Plasmozytomen [2]: zeigen eine Wirkung

- IC50 [4, 5]: 100 µg/mL (≈ 219 µM)
- IC50 (T47D (Brustkrebs); up to 500 µg/ml): 180 µg/mL (≈ 394 µM)
- IC50 (colo205 (Kofon-Karzinom); [6]): 200 µg/mL (≈ 438 µM)
Compound: CCCCCCCCCCC(=O)O[Si](CC)(CC)OC(=O)CCCCCCCCCC [Si 4, Di (undecanoyloxy) diethylslan]
- Wirkung gegen die Metastasierung von Plattenepihtelkarzinomen oder Plasmozytomen [2]: zeigen eine Wirkung

- IC50 [4, 5]: 60 µg/mL (≈ 98.5 µM)
- IC50 (T47D (Brustkrebs); up to 500 µg/ml): 80 µg/mL (≈ 131 µM)
- IC50 (colo205 (Kofon-Karzinom); [6]): 125 µg/mL (≈ 205 µM)
Compound: CCCCCCCCCCCCC(=O)O[Si](OC(=O)CCCCCCCCCCCC)(c1ccccc1)c1ccccc1 [Si 7, Di (tridecanoyloxy) diphenylslan]
- Wirkung gegen Rhino-Viren (Rhino-Viren): zeigen eine Wirkung
- Wirkung auf Osteosarkome (Osteosarkome): zeigen eine Wirkung

Compound: CCCCCCCCCC(=O)O[Si](CC)(CC)OC(=O)CCCCCCCCC [Si 12, Di (decanoyloxy) diethylsilan]
- IC50 ([4]; BXPC-3, read-out: IC50 BxPC3): 140 µg/mL (≈ 327 µM)
- IC50 (T47D (Brustkrebs)): 600 µg/mL (≈ 1400 µM)
- IC50 (colo205 (Kofon-Karzinom); [7]): 300 µg/mL (≈ 700 µM)
- Wirkung gegen die Metastasierung von Plattenepihtelkarzinomen oder Plasmozytomen [2]: zeigen eine Wirkung

Compound: Diethyl bis(biphenylalanyl)silylester
- Wirkung auf Lymphome (Lymphome): zeigen eine Wirkung
